In ChEMBL document CHEMBL1201862, “PubChem BioAssay data set” (2004):
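Compound exposure: 48 hours, 5 concentrations, 96-well plates. At the GI50, growth is halved.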 Calls of active or inactive are those of the source. Rule as the data show it: active = GI50 up to about 1.1 µM and inactive = higher.

How the values were obtained:
Test in all cases: growth of human tumour cells (NCI), 48 h
Hs-578T = tested on: Hs-578T
HOP-92 = tested on: HOP-92
SNB-19 = tested on: SNB-19
CCRF-CEM = tested on: CCRF-CEM
SK-MEL-5 = tested on: SK-MEL-5
SF-268 = tested on: SF-268
NCI-H23 = tested on: NCI-H23
COLO 205 = tested on: COLO 205
UACC-257 = tested on: UACC-257
RXF 393 = tested on: RXF 393
SW-620 = tested on: SW-620
CAKI-1 = tested on: CAKI-1
SR = tested on: SR
SN12C = tested on: SN12C
U-251 = tested on: U-251
LOX IMVI = tested on: LOX IMVI
MDA-N = tested on: MDA-N
MCF7 = tested on: MCF7
K562 = tested on: K562
OVCAR-4 = tested on: OVCAR-4

Measured: GI50

CC(=O)OCC1OC(NC(=S)Nn2c(=O)[nH]c3ccccc3c2=O)C(OC(C)=O)C(OC(C)=O)C1OC(C)=O (stereo not drawn)
inactive: Hs-578T > 100 µM | HOP-92 > 100 µM | SNB-19 > 100 µM | CCRF-CEM 49.5 µM | SK-MEL-5 > 100 µM | SF-268 > 100 µM | NCI-H23 > 100 µM | COLO 205 > 100 µM | UACC-257 > 100 µM | RXF 393 > 100 µM | SW-620 > 100 µM | CAKI-1 > 100 µM | SR 64.9 µM | SN12C > 100 µM | U-251 > 100 µM | LOX IMVI > 100 µM | MDA-N > 100 µM | MCF7 > 100 µM

O=C(CN1CCOCC1)NC1=Nc2ncccc2C(=O)NN1
inactive: Hs-578T > 10 µM | HOP-92 > 10 µM | SNB-19 > 10 µM | K562 > 10 µM | CCRF-CEM > 10 µM | SK-MEL-5 > 10 µM | SF-268 > 10 µM | NCI-H23 > 10 µM | UACC-257 > 10 µM | RXF 393 > 10 µM | SW-620 > 10 µM | SR > 10 µM | SN12C > 10 µM | U-251 > 10 µM | LOX IMVI > 10 µM | MDA-N > 10 µM | MCF7 > 10 µM

O=c1c(-c2ccc(O)cc2)coc2cc(OC3OC(CO)C(O)C(O)C3O)cc(O)c12 (stereo not drawn)
inactive: Hs-578T 61.1 µM | SNB-19 > 100 µM | K562 > 10 µM | CCRF-CEM 38.8 µM | SK-MEL-5 > 10 µM | SF-268 41.7 µM | NCI-H23 > 10 µM | COLO 205 > 10 µM | UACC-257 > 100 µM | RXF 393 40 µM | OVCAR-4 > 10 µM | SW-620 > 10 µM | CAKI-1 60.4 µM | SR 30.3 µM | SN12C > 100 µM | U-251 > 10 µM | LOX IMVI 79.8 µM | MDA-N > 100 µM | MCF7 > 10 µM

CCOC(=O)NN(C(=O)OCC)c1c(C)cc(C)cc1C
inactive: Hs-578T > 100 µM | SNB-19 > 100 µM | K562 > 100 µM | CCRF-CEM > 100 µM | SK-MEL-5 > 100 µM | SF-268 > 100 µM | NCI-H23 > 100 µM | COLO 205 > 100 µM | UACC-257 > 100 µM | RXF 393 21 µM | OVCAR-4 > 100 µM | SW-620 > 100 µM | CAKI-1 > 100 µM | SR > 100 µM | SN12C > 100 µM | U-251 > 100 µM | LOX IMVI 95.3 µM | MDA-N > 100 µM | MCF7 > 100 µM

COc1cc(OC2OC(CO)C(O)C(O)C2O)c2c(c1)O[C@@H]1[C@H](O)Oc3cc(OC)c(OC)cc3[C@]1(O)C2=O (stereo partly drawn)
inactive: Hs-578T > 25 µM | HOP-92 > 25 µM | SNB-19 > 25 µM | K562 > 25 µM | CCRF-CEM > 25 µM | SK-MEL-5 > 25 µM | SF-268 > 25 µM | NCI-H23 > 25 µM | COLO 205 > 25 µM | UACC-257 > 25 µM | OVCAR-4 > 25 µM | SW-620 > 25 µM | CAKI-1 > 25 µM | SR > 25 µM | SN12C > 25 µM | U-251 > 25 µM | LOX IMVI > 25 µM | MDA-N > 25 µM | MCF7 > 25 µM

CCOP(=O)(OCC)C(c1ccccc1)N(C(=O)NC(F)(F)F)c1cccc(F)c1 (stereo not drawn)
inactive: Hs-578T 78.3 µM | SNB-19 > 100 µM | K562 63.8 µM | CCRF-CEM > 100 µM | SK-MEL-5 > 100 µM | SF-268 > 100 µM | NCI-H23 > 100 µM | COLO 205 > 100 µM | UACC-257 > 100 µM | RXF 393 64.7 µM | SW-620 > 100 µM | CAKI-1 > 100 µM | SR > 100 µM | SN12C > 100 µM | U-251 > 100 µM | LOX IMVI > 100 µM | MDA-N > 100 µM | MCF7 > 100 µM

CCCCCCCCCCCCC(=O)NCC(=O)NC(Cc1ccccc1)C(=O)Oc1ccc([N+](=O)[O-])cc1 (stereo not drawn)
inactive: Hs-578T 75.3 µM | SNB-19 15.2 µM | CCRF-CEM 29.4 µM | SK-MEL-5 72.4 µM | SF-268 31.9 µM | NCI-H23 57.7 µM | COLO 205 16.7 µM | UACC-257 > 100 µM | RXF 393 91.4 µM | SW-620 39.9 µM | CAKI-1 > 100 µM | SR 33.7 µM | SN12C 70.1 µM | LOX IMVI 36.2 µM | MDA-N > 100 µM | MCF7 57.5 µM

CCN1c2nc3ccccc3nc2N(CC)c2nc3ccccc3nc21
inactive: Hs-578T 71.4 µM | SNB-19 > 100 µM | K562 34 µM | CCRF-CEM 48.3 µM | SK-MEL-5 41.2 µM | SF-268 32.1 µM | NCI-H23 49.1 µM | COLO 205 82.2 µM | UACC-257 > 10 µM | RXF 393 55.5 µM | SW-620 30.7 µM | CAKI-1 55.8 µM | SR 12.8 µM | SN12C 47.1 µM | U-251 48 µM | LOX IMVI > 100 µM | MDA-N 57.8 µM | MCF7 96.4 µM

Cc1nc2ccccc2c(=O)n1NC(=S)Nc1ccc(Cl)cc1[N+](=O)[O-]
inactive: Hs-578T > 100 µM | HOP-92 > 100 µM | SNB-19 > 72.8 µM | K562 > 100 µM | CCRF-CEM > 100 µM | SK-MEL-5 > 100 µM | SF-268 > 100 µM | NCI-H23 > 100 µM | COLO 205 > 100 µM | UACC-257 > 100 µM | RXF 393 > 100 µM | OVCAR-4 > 100 µM | SW-620 > 100 µM | CAKI-1 > 100 µM | SR > 100 µM | SN12C > 100 µM | U-251 > 100 µM | MDA-N > 100 µM | MCF7 > 100 µM

COc1cc(OCc2ccccc2)c2c(CCC(=O)O)cc(=O)oc2c1.COc1cc(OCc2ccccc2)cc2oc(=O)cc(CCC(=O)O)c12
inactive: Hs-578T 50.6 µM | HOP-92 32 µM | SNB-19 92.3 µM | K562 49 µM | CCRF-CEM 36.7 µM | SK-MEL-5 70.6 µM | SF-268 61 µM | NCI-H23 33.9 µM | COLO 205 67.3 µM | UACC-257 > 100 µM | OVCAR-4 47.6 µM | SW-620 > 100 µM | CAKI-1 28.6 µM | SR 38.9 µM | U-251 55 µM | LOX IMVI 20.9 µM | MDA-N > 100 µM | MCF7 2.59 µM

CCOC(=O)C1(N)CCc2[nH][nH]c(=O)c2C1 (stereo not drawn)
inactive: Hs-578T > 100 µM | HOP-92 > 100 µM | SNB-19 > 100 µM | K562 > 100 µM | CCRF-CEM > 100 µM | SK-MEL-5 > 100 µM | NCI-H23 > 100 µM | COLO 205 > 100 µM | UACC-257 > 100 µM | OVCAR-4 > 100 µM | SW-620 > 100 µM | CAKI-1 > 100 µM | SR > 100 µM | U-251 > 100 µM | LOX IMVI > 100 µM | MDA-N > 100 µM | MCF7 > 100 µM
